# In patent US4327114A, “Substituted 1,8-dihydroxy-9-(10H)anthracenones” (Boehringer Ingelheim GmbH, priority 1980, dated 1982):
# “Also recorded” adds a separate entry of the source.
# Columns and labels:
# [1] = Solubility remark; assay type: physicochemical
# [2] = tested on: mouse; assay: Acute toxicity in the mouse; assay type: in vivo; conditions: 2000 mg/kg
# Description: (§1) The acute toxicity was determined in the mouse and in the rat. Determined was the LD50, i.e. the dose after administration of which 50% of the animals died within 14 days, or it was determined how many of the 10 treated animals died within the period of observation.
# [3] = Acute toxicity in the mouse; assay type: in vivo; conditions: in vivo, within 14 days
# Description: as §1
# [4] = Stability under light irradiation; assay type: physicochemical; conditions: for decomposition under light: 30 minutes, 400 W high-pressure mercury vapor lamp, in toluene or xylene
# Description: Compound C and dithranol (A) in solution (toluene or xylene) were exposed for 30 minutes to a 400 W high-pressure mercury vapor lamp (Type HPM 12, Phillips), where the spectrum of light emission was changed by adding heavy metal salts.
# [5] = tested on: skin (forearms of volunteer human test subjects); assay: Orienting skin compatibility in humans (ointments on forearm); assay type: in vivo; conditions: for discoloration of the skin / skin irritation: 0.44% ointment, 16 hours, doubled to 0.88% after 3 days if no reaction
# Description: Ointments, each containing individually 0.44% of compounds […] and K were applied to the forearms of volunteer human test subjects, covered with bandage gauze and allowed to remain on the skin for 16 hours. After 16 hours the ointments were washed off with soap solution, and the skin irritation and discoloration, if any, were evaluated visually and photographed. Then, the test ointments were again administered and allowed to remain on the skin until the next day. Again, the reactions were evaluated and a new treatment was started.
# [6] = tested on: skin of guinea pigs; assay: Skin compatibility test on guinea pigs; assay type: in vivo, guinea pig (Perbright White strain); conditions: for Sum of the reactions divided by the number of animals: score 0 no irritation to 3 very strong erythema
# Description: Guinea pigs of the Perbright White strain, with a body weight of about 350 gm, were fed with standard guinea pig feed (Altromin 3022) and water ad lib.
# During the test, the animals were kept in single cages. The test substances, which were dissolved in a well compatible solvent, were applied to the skin of the animals (diameter of the test area 3.5 cm) daily for 3 weeks, from Monday to Friday. The animals were shaved each Monday, Wednesday and Friday in the early morning, the treatment with the test substances was performed in the early afternoon. Immediately before administration of the substance, the skin reaction was tested. The evaluation was carried out visually, and erythema, edema, and mycosis of the skin were considered.
# The following evaluation was made:
# 2: strong erythema with beginning edema
# 3: very strong erythema with edema or beginning necrosis.
# The numerical sum of the reactions was used for the total evaluation of a group of animals.
# [7] = prior use; cited from earlier work
# [8] = tested on: psoriasis; conditions: literature or prior use; cited from earlier work
# [9] = tested on: skin; conditions: literature or prior use; listed as dithranol; cited from earlier work
# [10] = Penetration and metabolization in the skin in vitro; assay type: in vitro ADME, pig; conditions: thin-layer chromatography; for penetration into the layers of the skin: same carriers
# [11] = tested on: guinea pigs; assay: Sensitizing activity on guinea pigs; assay type: in vivo, guinea pig (Perbright White strain)
# Description: The sensitizing activity was tested 2 weeks after the skin compatibility test with 1:10 to 1:50 of the originally used concentrations behind the ears.
# [12] = Acute toxicity in the rat; assay type: in vivo; conditions: in vivo, ip, within 14 days
# Description: as §1
# [13] = tested on: rat; assay: Acute toxicity in the rat; assay type: in vivo
# Description: as §1
# [14] = tested on: skin; assay: Skin compatibility under occlusion, method of Mustakallio; assay type: in vivo; conditions: for concentrations producing discoloration and skin irritations: white vaseline
# Description: In a further test, according to the method of Mustakallio, compound A was applied at concentrations of 1, 2, 4, 8, 16, 32 mmols in white vaseline and allowed to remain on the skin for 4 hours under occlusion. Compounds C and K, however, were applied at concentrations of 4, 8, 16, 32, 64, 128 mmols, also in white vaseline, and allowed to remain on the skin for 16 hours under occlusion. […] This means that the novel compounds are more compatible by a factor of at least 64.
# [15] = Natural color of the substance (UV-absorption, FIG. 1); assay type: physicochemical; conditions: shortwave portion of visible light, beginning at 380 nm
# From the text: Topically administrable substances which are colored are undesirable for cosmetic reasons and also because the lingerie may become soiled. […] This is also expressed by the optic impression of the preparations. […] This is a further advantage compared with dithranol.
# [16] = molecular target: glucose-6-phosphate-dihydrogenase; assay: Inhibition of glucose-6-phosphate-dihydrogenase after 120 minutes incubation; assay type: biochemical; conditions: 37° C., pH 7.6, REED and MUENCH
# Description: The inhibiting effect upon enzymes was determined by measurement of the inhibition of glucose-6-phosphate-dihydrogenase.
# The following equilibrium was observed: [drawing 5] (NADP-nicotinamide-adenine-dinucleotide-phosphate). The rate of formation of NADPH is a measure of the enzyme activity; it can be measured by means of the increase in extinction at […] per unit of time.
# 0.025 ml of glucose-6-phosphate-dihydrogenase were diluted to 10 ml with distilled water (Solution I). 100 mg of nicotinamide-adenine-dinucleotide-phosphate were dissolved in 13 ml of distilled water (Solution II). 47.2 mg of glucose-6-phosphate were dissolved in another 10 ml of distilled water (Solution III). Besides this, a buffer solution (Solution IV) was prepared as follows:
# 0.28 gm of triethanolamine hydrochloride and 1.461 gm of ethylene-diamine tetraacetic acid disodium salt were dissolved in 1 liter of distilled water, and the solution was adjusted to pH 7.6 with sodium hydroxide. The substance to be tested was dissolved in dimethyl formamide or ethanol (Solution V). Tested end-concentrations: 25, 12.5, 6.25, 3.125, 1.56 and 0.78 μg/ml.
# A mixture of 0.1 ml of Solution I, 0.1 ml of Solution II, 2.67 ml of Solution IV and 0.03 ml of Solution V was kept at 37° C. for 120 minutes. After addition of 0.1 ml of Solution III and thorough mixing, the change in extinction was measured photometrically at 366 nm over 3 minutes. The inhibition values were calculated from the average values of 3 measurements (as change of extinction per minute), compared to controls to which the pure solvent was added as inhibitor solution. The ED50 was calculated according to the method of REED and MUENCH from the inhibiting values of the different concentrations. The following table contains the values thus determined: […]
# [17] = tested on: guinea pig; assay: Photo-sensitization in vivo on the guinea pig; conditions: 0.01% alcoholic solution, 3 weeks, 125 W mercury high-pressure lamp 10 minutes
# Description: Since some halogenated aromatic substances have a photo-sensitizing activity, the photo-sensitization of compound C was also tested in vivo on the guinea pig.
# Guinea pigs were treated for 3 weeks on 5 week-days with a 0.01% alcoholic solution of compound C. After 30 minutes each animal was exposed for 10 minutes to a 125 W mercury high-pressure lamp (ultra violet sun lamp). The irradiation was carried out in such a way that no UV-B erythema appeared.
compound,measurement,setting,value
CC(C)(C)c1cc(Br)c(O)c2c1Cc1c(Br)cc(Br)c(O)c1C2=O,solubility,[1],inadequate solubility
"O=C1c2c(O)cccc2Cc2cccc(O)c21 [Compound A, 1,8-Dihydroxy-9-(10H)anthracenone]",Number of dead animals,[2]; p.o.,2/10
same,LD50 at 336 h,[3]; ip,2.42 mg/kg
same,LD50 at 336 h,[3]; sc.,2.22 mg/kg
same,decomposition under light,[4],nearly completely decomposed
same,discoloration of the skin,[5],brownish-violet discoloration after only the second application
same,skin irritation,[5],strong skin irritation with erythema
same,later changes of the treated skin area,[5]; ointment test,peeled after about one week
same,Sum of the reactions divided by the number of animals,"[6]; 0.015%, end of 1st week",0.66
same,Sum of the reactions divided by the number of animals,"[6]; 0.015%, end of 2nd week",0.33
same,Sum of the reactions divided by the number of animals,"[6]; 0.015%, end of 3rd week",0.33
same,Sum of the reactions divided by the number of animals,"[6]; 0.03%, end of 1st week",1.3
same,Sum of the reactions divided by the number of animals,"[6]; 0.03%, end of 2nd week",2.16
same,Sum of the reactions divided by the number of animals,"[6]; 0.03%, end of 3rd week",2.25
same,systemic side-effects,[7],lack of systemic side-effects
same,antipsoriatic activity,[8],reliable activity
same,skin irritation and/or discoloration,[9],"strong, irreversible discoloration of skin and lingerie; also recorded: strong skin-irritating activity"
same,penetration into the layers of the skin,[10],penetrate to an approximately equal extent
same,metabolization in the skin,[10],metabolized in a similar manner
same,sensitized animals,"[11]; 0.03%, tested 2 weeks after skin compatibility test",3 out of 12
same,LD50 at 336 h,[12],5.19 mg/kg
same,Number of dead animals,"[13]; p.o., 2000 mg/kg",1/10
same,Number of dead animals,"[13]; sc., 1000 mg/kg",2/10
same,concentrations producing discoloration and skin irritations,[14]; 4 hours of occlusion,≥ 2 mmols
same,concentrations producing discoloration and skin irritations,[14]; 16 hours of occlusion,≥ 1 mmols
"O=C1c2c(O)ccc(Cl)c2Cc2c(Cl)ccc(O)c21 [Compound C, 4,5-Dichloro-1,8-dihydroxy-9-(10H)anthracenone]",Number of dead animals,[2]; i.p.,1/10
same,Number of dead animals,[2]; p.o.,0/10
same,Number of dead animals,[2]; sc.,6/10
same,UV-absorption / yellow color,[15],significantly less UV-absorption
same,"ED50, inhibition of incubation after 120 minutes",[16],4.63 µg/mL
same,photo-sensitizing activity,[17],No photo-sensitizing activity could be determined
same,decomposition under light,[4],no decomposition could be determined
same,chlorination of toluene (radical formation),"[4]; gas-chromatographic, sensitivity 0.0001%",no chlorination of toluene could be found
same,discoloration of the skin,[5],no skin irritation or discoloration of the skin
same,skin irritation,[5],no skin irritation
same,Sum of the reactions divided by the number of animals,"[6]; 0.03%, end of 1st week",0
same,Sum of the reactions divided by the number of animals,"[6]; 0.03%, end of 2nd week",0
same,Sum of the reactions divided by the number of animals,"[6]; 0.03%, end of 3rd week",0.04
same,Sum of the reactions divided by the number of animals,"[6]; 0.045%, end of 1st week",0.166
same,Sum of the reactions divided by the number of animals,"[6]; 0.045%, end of 2nd week",0.66
same,Sum of the reactions divided by the number of animals,"[6]; 0.045%, end of 3rd week",0.41
same,skin compatibility compared with compound A,[6]; Table 3,considerably more skin-compatible than compound A
same,penetration into the layers of the skin,[10],penetrate to an approximately equal extent
same,metabolization in the skin,[10],metabolized in a similar manner
same,sensitization,"[11]; 1:10 to 1:50 of the original concentrations, behind the ears",no sensitization
same,Number of dead animals,"[13]; i.p., 2000 mg/kg",0/10
same,Number of dead animals,"[13]; p.o., 2000 mg/kg",0/10
same,Number of dead animals,"[13]; sc., 2000 mg/kg",0/10
same,skin irritations or discolorations,"[14]; 4 to 128 mmols in white vaseline, after 4 and after 16 hours of occlusion",no skin irritations or discolorations could be observed
